Measured values: patent US7674596B2 (priority 2005, dated 2010)
“Also recorded” adds a separate entry of the source.

What was measured:
Format in all cases: cell-based
[1] = target: T1, T-type α1H channel (Homo sapiens, UniProt O95180); assay: Fluo-3 fluorescent calcium imaging (cooled CCD) in clone #30 cells (HEK293-TChH-IRK2.1); settings: for increase of intracellular calcium signal (fluorescent image) upon KCl depolarization: 60 mM KCl
T1 construct: expressed in transfected cells; clone #30, KCTC 10780BP
T1 sequence (O95180 whole entry): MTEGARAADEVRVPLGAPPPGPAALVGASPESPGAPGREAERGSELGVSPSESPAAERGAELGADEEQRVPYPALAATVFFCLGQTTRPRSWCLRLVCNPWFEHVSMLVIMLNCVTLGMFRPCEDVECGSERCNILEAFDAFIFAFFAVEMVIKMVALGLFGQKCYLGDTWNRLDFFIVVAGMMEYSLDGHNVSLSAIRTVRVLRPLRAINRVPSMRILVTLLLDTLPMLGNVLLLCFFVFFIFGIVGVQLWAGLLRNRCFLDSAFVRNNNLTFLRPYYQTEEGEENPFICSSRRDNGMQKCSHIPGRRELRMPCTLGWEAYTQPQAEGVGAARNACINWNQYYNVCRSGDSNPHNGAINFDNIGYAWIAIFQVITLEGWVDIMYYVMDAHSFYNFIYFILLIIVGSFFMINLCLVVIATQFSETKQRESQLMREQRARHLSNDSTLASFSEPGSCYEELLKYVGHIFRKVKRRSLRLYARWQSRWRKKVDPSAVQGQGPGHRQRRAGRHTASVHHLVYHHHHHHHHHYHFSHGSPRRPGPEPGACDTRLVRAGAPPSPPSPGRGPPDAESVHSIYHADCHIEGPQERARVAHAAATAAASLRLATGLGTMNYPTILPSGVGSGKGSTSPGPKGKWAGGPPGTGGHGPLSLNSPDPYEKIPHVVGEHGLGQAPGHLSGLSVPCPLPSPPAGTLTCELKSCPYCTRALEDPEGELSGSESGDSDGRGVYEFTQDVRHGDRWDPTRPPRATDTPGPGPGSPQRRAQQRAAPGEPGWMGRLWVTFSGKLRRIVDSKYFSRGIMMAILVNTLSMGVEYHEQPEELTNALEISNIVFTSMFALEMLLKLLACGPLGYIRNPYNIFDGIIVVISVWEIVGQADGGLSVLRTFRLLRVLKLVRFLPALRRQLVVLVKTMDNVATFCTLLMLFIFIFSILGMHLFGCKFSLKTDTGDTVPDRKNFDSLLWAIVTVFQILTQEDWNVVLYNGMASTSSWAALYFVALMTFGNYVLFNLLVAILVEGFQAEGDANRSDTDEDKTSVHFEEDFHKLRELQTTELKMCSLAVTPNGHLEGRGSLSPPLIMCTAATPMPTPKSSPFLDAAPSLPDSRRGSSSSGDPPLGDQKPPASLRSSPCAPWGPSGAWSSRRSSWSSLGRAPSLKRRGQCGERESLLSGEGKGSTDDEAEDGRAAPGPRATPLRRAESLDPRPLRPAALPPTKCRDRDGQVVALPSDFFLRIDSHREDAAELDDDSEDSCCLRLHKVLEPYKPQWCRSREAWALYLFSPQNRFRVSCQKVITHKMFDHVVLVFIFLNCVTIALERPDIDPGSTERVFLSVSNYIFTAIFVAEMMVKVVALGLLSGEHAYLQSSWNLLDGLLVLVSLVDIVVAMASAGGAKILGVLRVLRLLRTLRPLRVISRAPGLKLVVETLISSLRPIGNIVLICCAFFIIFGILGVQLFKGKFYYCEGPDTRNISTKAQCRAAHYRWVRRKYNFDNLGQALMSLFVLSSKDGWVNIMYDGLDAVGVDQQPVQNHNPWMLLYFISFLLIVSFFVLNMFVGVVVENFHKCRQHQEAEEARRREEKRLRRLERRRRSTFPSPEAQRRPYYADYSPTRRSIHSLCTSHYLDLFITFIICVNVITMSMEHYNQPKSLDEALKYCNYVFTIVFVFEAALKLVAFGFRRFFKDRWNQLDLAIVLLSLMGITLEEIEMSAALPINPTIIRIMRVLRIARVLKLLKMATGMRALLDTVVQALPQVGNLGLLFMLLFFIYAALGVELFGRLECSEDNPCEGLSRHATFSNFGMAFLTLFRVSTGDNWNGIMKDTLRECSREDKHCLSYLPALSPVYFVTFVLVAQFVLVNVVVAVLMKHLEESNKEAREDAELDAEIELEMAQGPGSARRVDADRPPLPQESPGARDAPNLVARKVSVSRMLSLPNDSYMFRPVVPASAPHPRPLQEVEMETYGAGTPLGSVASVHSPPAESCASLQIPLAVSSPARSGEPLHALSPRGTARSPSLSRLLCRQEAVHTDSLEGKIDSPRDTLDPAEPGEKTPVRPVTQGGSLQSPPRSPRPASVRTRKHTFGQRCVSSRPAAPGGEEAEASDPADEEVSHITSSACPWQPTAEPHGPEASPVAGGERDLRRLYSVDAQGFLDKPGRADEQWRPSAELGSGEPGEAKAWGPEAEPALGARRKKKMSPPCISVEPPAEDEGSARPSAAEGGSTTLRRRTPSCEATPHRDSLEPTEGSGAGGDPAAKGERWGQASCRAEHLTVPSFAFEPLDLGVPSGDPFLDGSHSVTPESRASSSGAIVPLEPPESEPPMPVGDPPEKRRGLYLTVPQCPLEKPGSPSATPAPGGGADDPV
Description: (§1) Intracellular calcium concentrations were measured by the ratio fluorescence system (Ratiomaster, Photon Technology International, USA) installed on a fluorescent microscope (Nikon TE2000, Japan) as well as CoolSNAP CCD imaging system (Loafer Scientific, USA). Particularly, Fura-2/AM or Fluo-3 (Molecular Probes, USA) was added up to 5 μM to cells cultured on a cover slip, followed by loading at room temperature for 30-60 minutes with the light blocked. After the loading, the cells were washed twice with an extracellular flushing medium, and then the cover slip, on which the cells were stuck, was put on a perfusion chamber on the microscope. In the case of Fura-2/AM, the changes in the intracellular calcium (Ca^2+) concentration were measured using a photomultiplier (PM) tube in the ratio of fluorescence (F340/F380 t) emitted at 510 nm when 340 nm and 380 nm were used for excitation respectively. When Fluo-3 was used, fluorescent ratios were not measured but the fluorescent image emitted at 525 nm was recorded and captured by a cooled CCD, which was then analyzed by the Metaimage 6.1 program (Imaging Corporation, USA).
To measure fluorescent calcium image, Fluo-3 was loaded to clone #30 cells.

[2] = target: T1, T-type α1H channel; assay: Fura-2/AM ratio fluorescence (F340/F380) calcium assay in single cell of clone #30 (HEK293-TChH-IRK2.1) depolarized by KCl; settings: depolarization by 60 mM KCl, pre-treatment with mibefradil (3 μM elsewhere in the source)
Description: as §1

[3] = target: T2, human potassium channel Kir2.1 (Homo sapiens, UniProt P63252); assay: Gramicidin-perforated current-clamp measurement of membrane potential of clone #30; settings: 100 μM barium
T2 construct: expressed in transfected cells; host or cells: HEK293 stably expressing human T-type α1H; clone #30 (HEK293-TChH-IRK2.1, KCTC 10780BP)
T2 sequence (P63252 1-427): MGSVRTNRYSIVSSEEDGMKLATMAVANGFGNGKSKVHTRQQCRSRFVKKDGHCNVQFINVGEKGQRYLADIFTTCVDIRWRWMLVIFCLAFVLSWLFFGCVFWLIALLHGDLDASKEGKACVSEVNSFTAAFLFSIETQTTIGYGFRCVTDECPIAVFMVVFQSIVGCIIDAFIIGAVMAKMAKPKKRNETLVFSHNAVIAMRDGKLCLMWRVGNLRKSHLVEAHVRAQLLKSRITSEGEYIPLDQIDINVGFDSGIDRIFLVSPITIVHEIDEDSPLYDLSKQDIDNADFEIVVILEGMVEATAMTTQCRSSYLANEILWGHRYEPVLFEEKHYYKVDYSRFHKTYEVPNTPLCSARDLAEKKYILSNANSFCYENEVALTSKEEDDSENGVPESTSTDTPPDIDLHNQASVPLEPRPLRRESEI
Description: (§2) The procedures and conditions of the experiment were as follows. The T-type calcium current and inwardly rectifying potassium current (referred as “IRK current” hereinafter) were recorded by the whole-cell ruptured patch-clamp method (Hamil et al., Pflugers Arch., 391:85-100, 198; Jeong and Ikeda, Neuron, 21:1201-1212, 1998), a voltage clamp technique, to confirm which clone could best express the human T-type α1H channel and human potassium channel Kir2.1. In the meantime, the resting membrane potential of the clones that were confirmed by the measurement of calcium and potassium currents was monitored by the gramicidin-perforated current-clamp method (Akaike, Prog. Biophys. Mol. Biol., 65:251-264, 1997).
(§3) The patch electrode used in the measurement above was prepared with a borosilicate glass tube (Corning, USA) by a P-97 flaming brown micro-pipette puller (Sutter Instrument, USA). […] The cell capacitance and series resistance were adjusted to more than 80% by using Axopatch-1D (Axon Instruments, USA) or EPC-10 amplifier (HEKA, Germany). S4 (prepared by Dr. Stephen R. Ikeda, USA) using ITC18 (Instrutech, USA) or Pulse (HEKA, Germany) was used for the generation and data collection of the voltage-stimulating protocol. […] The results were recorded in a computer. […]
(§4) The T-type α1H channel current, activated at −50 mV and showing maximum activity at −30 mV, was recorded as well. […]

[4] = target: T2, human potassium channel Kir2.1; assay: Whole-cell ruptured patch-clamp recording of inwardly rectifying potassium (IRK) current in clone #30; parameters: dose or concentration left out as unconfirmed; settings: Ba^2+, voltage clamp
Description: as §2, §3, §4

COCC(=O)O[C@]1(CCN(C)CCCc2nc3ccccc3[nH]2)CCc2cc(F)ccc2[C@@H]1C(C)C [mibefradil]
increase of intracellular calcium signal (fluorescent image) upon KCl depolarization ([1]; pre-treatment with mibefradil (3 μM elsewhere in the source)): completely inhibited; also recorded: completely blocked | intracellular calcium level at non-depolarized resting phase (number of red cells) ([1]; no KCl, mibefradil (3 μM elsewhere in the source)): reduced remarkably; also recorded: remarkably reduced | increase in intracellular calcium (F340/F380 ratio) by influx through T-type α1H channels [2]: completely blocked; also recorded: completely inhibited

[Ba+2] [Ba^2+, barium]
membrane potential response [3]: Ca^2+ spikes or action potentials were induced with depolarization | IRK current [4]: blocked

[Ni+2] [Ni^2+, nickel (Ni^2+)]
increase of intracellular calcium signal (fluorescent image) upon KCl depolarization ([1]; pre-treatment with 100 μM nickel): completely inhibited | increase of intracellular calcium signal (fluorescent image) upon KCl depolarization ([1]; pre-treatment with 100 mM Ni^2+): completely inhibited
